Results as given in PMC10641921, “Optimization of mTOR Inhibitors Using Property-Based Drug Design and Free–Wilson Analysis for Improved In Vivo Efficacy” (ACS Medicinal Chemistry Letters, 2023).
Where two headings read alike, the source gives them in different places.

Key:
[1] = system: pAKT-S473 in PC-3 cells (TORC2); test: Cellular p-AKT (ser473) AlphaScreen assay in PC-3 cells (TORC2 activity); format: cell-based, human
Description: The target product profile for 1 and the next-generation analogs described here was for a dual inhibitor against both TORC1 and TORC2.
FRAP1 (mTOR) recombinant protein and GFP-4E-BP1 were purchased from Invitrogen (Carlsbad, CA, US).
The kinase activity assay was conducted in 50 mM Hepes buffer containing 10 mM MgCl2, 0.01% Brij, 0.2 mM EDTA, 2 mM DTT and 1% DMSO (after compound addition) at pH 7.3.
The IC50 value for each compound was determined in the presence of compound (various concentrations, from 0 to 10 μM) and a fixed amount of ATP (50 μM, final concentration), substrate GFP-4E-BP1 (400 nM, final concentration). The enzymatic reaction was initiated by adding FRAP1 (mTOR) (2 nM, final concentration). The assay was conducted at room temperature (~22 °C). After 30 min, the enzymatic reaction was stopped using Tb-anti-p4E-BP1 (2 nM final concentration, Invitrogen) and EDTA (20 mM final concentration, Sigma) in TR-FRET dilution buffer provided by Invitrogen. All the reagents were dispensed using a Multidrop Combi reagent dispenser (ThermoFisher Scientific, Waltham, […]
The release of product was detected using a BMG PHERAstar plate reader (BMG LABTECH, Ortenberg, Germany) and the Lantha Screen module (337 nm excitation wavelength) and measuring the ratio of fluorescence 520/490 nm (emission wavelengths). Experimental data was fitted using Eq. (1):
Vi and Vo are the rates of the enzyme activity in the presence and in the absence of inhibitor; n is the Hill coefficient; I is the free inhibitor concentration; IC 50 is a measure of potency that is equivalent to a […]
Cellular p-AKT (ser473) assay in PC-3 cells
PC-3 cells (PTEN deleted, human prostate cell line) were maintained in F12K media with 10% heat-inactivated fetal bovine serum (FBS) in 37 °C, 5% CO2 incubator. This method describes the procedure […]
from Perkin Elmer (catalog# TGRAS500). On day 1, 50,000 PC-3 cells were plated in 160 µL complete […]
Plates were placed in 37 °C, 5%
CO2 incubator for 24 h. On day 2, all media was removed and replaced with 160 µL starvation media which is F12K media (no FBS) and 0.1% BSA. Plates are placed in 37 °C, 5% CO2 incubator for 16 h. On day 3, compounds were both solubilized and serially diluted in DMSO and added to a secondary plate containing starvation media. 40 µL of compound/starvation media were added to the 160 µL in cell plate and plates were placed back in the incubator for 1 h. Cells were then activated by adding 22 µL FBS (for a final concentration of 10% FBS) for 10 min in the incubator. Media was removed from the well and cells were lysed in 100 µL SureFire kit lysis buffer and then shake n for 15 min at 900 rpm. AlphaScreen […]
assay was performed according to manufacturer’s instructions. 4 µL of lysate was added to PerkinElmer 96-well Proxiplate then 5 µL of Reaction Buffer plus Activation Buffer. Plates were shaken for 2 h at room temperature. 2 µL of Donor Beads in Dilution Buffer were added to the plate and the plate was shaken for 2 h at room temperature. The plate was read using BMG Labtech PHERAstar using AlphaScreen settings. Each analog was run in duplicate wells and a single IC50 value was calculated in […]

PI3Kα = PI3Kα enzyme selectivity (PI3Kα IC50 over mTOR IC50); format: biochemical; settings: ratio of PI3Kα enzyme IC50 over mTOR enzyme IC50
[2] = Human liver microsome intrinsic clearance; format: in vitro ADME; settings: apparent intrinsic clearance, scaled
CYP2C8 = molecular target: T1, CYP2C8 (Homo sapiens, UniProt P10632); test: CYP inhibition, 2C8; format: in vitro ADME; settings: most potently inhibited CYP isoform
T1 sequence (P10632 1-490): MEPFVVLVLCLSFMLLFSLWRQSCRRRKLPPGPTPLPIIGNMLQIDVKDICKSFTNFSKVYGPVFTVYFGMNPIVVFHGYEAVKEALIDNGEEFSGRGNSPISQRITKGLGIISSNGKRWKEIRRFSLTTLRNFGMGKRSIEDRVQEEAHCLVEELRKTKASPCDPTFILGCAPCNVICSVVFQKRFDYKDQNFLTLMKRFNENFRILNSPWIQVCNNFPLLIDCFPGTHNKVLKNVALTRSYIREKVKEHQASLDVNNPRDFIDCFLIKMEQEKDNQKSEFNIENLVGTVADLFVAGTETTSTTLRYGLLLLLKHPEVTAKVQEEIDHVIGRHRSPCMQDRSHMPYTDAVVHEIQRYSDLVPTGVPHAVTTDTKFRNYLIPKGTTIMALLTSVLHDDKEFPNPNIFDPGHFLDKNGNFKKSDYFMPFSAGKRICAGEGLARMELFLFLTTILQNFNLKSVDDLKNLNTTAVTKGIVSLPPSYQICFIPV

[3] = system: CYP 2C8, 1A2, 2C9, 2C19, 2D6 and 3A4; test: CYP inhibition, all isoforms tested; format: in vitro ADME; settings: human
Excerpt: We also desired to remove the aniline structural alert present in the aryl urea moiety, which has been associated with idiosyncratic adverse drug reactions.[16]

Rat PK (iv and po) = format: in vivo; settings: for bioavailability: in vivo, 4 mg/kg
Excerpt: This was an early indication that the strategy of increasing potency while lowering lipophilicity would allow us to meet our goal of improving prospects for favorable PK and dose.

[4] = Homo sapiens, PC-3, PC-3 cell line, read-out: pAKT S473 Cell IC50
[5] = Homo sapiens, p-AKT S473, PC-3 cells, mean of N runs, read-out: Cell pEC50 (converted)
[6] = PC-3 cell line, read-out: pAKT S473 Cell IC50
[7] = iv 1 mpk, po 4 mpk in 0.5% methylcellulose
[8] = Homo sapiens, PC-3, read-out: Cell pEC50 (converted)
[9] = Homo sapiens, PC-3, read-out: pAKT S473 Cell IC50

Structure (SMILES)	IC50 [1, 4] [nM]	EC50 [1, 5] [nM]	PI3Kα Sel (PI3Kα) [x]	HLM Clint [2] [mL min^–1 kg^–1]	PI3Kα Sel (PI3Kα; Table 2, unit not given)	further results
C[C@@]12COCCN1c1nc(-c3cncc4[nH]ccc34)ncc1N(C1CCOCC1)C2=O [4f]	17	16.6	84	–	–	–
COCCCN1C(=O)[C@]2(C)COCCN2c2nc(-c3cnc4[nH]ccc4c3)ncc21 [13b]	57	57.5	–	32	9	–
C[C@@]12COCCN1c1nc(-c3cnc4[nH]ccc4c3)ncc1N(CCCO)C2=O [13c]	170	170	–	9	9	–
Cc1cccc2c(-c3ncc4c(n3)N3CCOC[C@@]3(C)C(=O)N4[C@H]3CC[C@H](O)CC3)c[nH]c12 [15b]	–	–	–	7	–	IC50 (CYP2C8): 3000 nM
Cc1ccc(-c2ncc3c(n2)N2CCOC[C@@]2(C)C(=O)N3[C@H]2CC[C@@H](O)CC2)c2cc[nH]c12 [15c]	–	–	–	8	–	IC50 (CYP2C8): 3000 nM
C[C@@]12COCCN1c1nc(-c3cnc4[nH]ccc4c3)ncc1N(C1(CCO)CC1)C2=O [13d]	61	61.7	–	11	59	–
C[C@@]12COCCN1c1nc(-c3cnc4[nH]ccc4c3)ncc1N(C1CCOC1)C2=O (stereo partly shown) [13a]	74	74.1	–	12	5	–
C[C@@]12COCCN1c1nc(-c3cccc4[nH]ccc34)ncc1N(C1CCOCC1)C2=O [4e]	≤ 30	21.4	110	10	110	IC50 [3]: > 40000 nM; IC50 [1, 6]: 21 nM; bioavailability (Rat PK (iv and po); [7]): 91%; Cl (Rat PK (iv and po); iv 1 mpk): 15 mL min^–1 kg^–1
C[C@@]12COCCN1c1nc(-c3ccc(NC(=O)NC4CC4)cc3)ncc1N(CC1CC1)C2=O [3a]	38	38	100	–	–	–
C[C@@]12COCCN1c1nc(-c3ccc(NC(=O)NC4CC4)cc3)ncc1N(C1CCOCC1)C2=O [4a]	42	41.7	63	–	–	–
Cc1cccc2c(-c3ncc4c(n3)N3CCOC[C@@]3(C)C(=O)N4C3(CCO)CC3)c[nH]c12 [15e]	–	–	–	6	–	IC50 (CYP2C8): 1300 nM; EC50 [1, 8]: 4.57 nM; IC50 ([1]; Homo sapiens, PC-3, read-out: pAKT S473 Cell IC50, PC-3 cell line): 5 nM
C[C@@]12COCCN1c1nc(-c3cnc4cc[nH]c4c3)ncc1N(C1CCOCC1)C2=O [4c]	100	105	13	–	–	–
CC(=O)N1CCC(N2C(=O)[C@]3(C)COCCN3c3nc(-c4cccc5[nH]ccc45)ncc32)CC1 [14a]	–	–	–	6	120	EC50 [1, 8]: 55 nM; IC50 [1, 9]: 55 nM
C[C@@]12COCCN1c1nc(-c3cnc4[nH]ccc4c3)ncc1N(CC1CC1)C2=O [3b]	51	51.3	48	–	–	–
Cc1cccc2c(-c3ncc4c(n3)N3CCOC[C@@]3(C)C(=O)N4[C@H]3CC[C@@H](O)CC3)c[nH]c12 [15d]	–	–	–	7	–	IC50 (CYP2C8): 800 nM
C[C@@]12COCCN1c1nc(-c3cccc4[nH]ccc34)ncc1N([C@H]1CC[C@@H](O)CC1)C2=O [14b]	14	14.1	–	6	110	IC50 (CYP2C8): 4000 nM; frac. abs. (Rat PK (iv and po); estimated from %F, Cl and Qh = 70 mL min^–1 kg^–1): 100%; bioavailability (Rat PK (iv and po); [7]): 100%; Cl (Rat PK (iv and po); iv 1 mpk): 11 mL min^–1 kg^–1; Vd (Rat PK (iv and po); iv 1 mpk): 3.9 L/kg; Cmax (Rat PK (iv and po); po 4 mpk in 0.5% methylcellulose): 1400 nM; PI3Ka sel. (PI3Kα): 110 ×
Cc1ncc(-c2ncc3c(n2)N2CCOC[C@@]2(C)C(=O)N3C2CCOCC2)c2cc[nH]c12 [4h]	48	47.9	270	–	–	–
Cc1cccc2c(-c3ncc4c(n3)N3CCOC[C@@]3(C)C(=O)N4C3CCOCC3)c[nH]c12 [4i]	9	8.71	640	–	–	IC50 (CYP2C8): 1000 nM
C[C@@]12COCCN1c1nc(-c3c[nH]c4ccccc34)ncc1N(C1CCOCC1)C2=O [4d]	≤ 30	29.5	120	–	–	IC50 [1, 6]: 30 nM
C[C@@]12COCCN1c1nc(-c3cnc4cc[nH]c4c3)ncc1N(CC1CC1)C2=O [3c]	91	91.2	26	–	–	–
C[C@@]12COCCN1c1nc(-c3cnc4[nH]ccc4c3)ncc1N(C1CCN(S(C)(=O)=O)CC1)C2=O [13e]	–	–	–	6	14	EC50 [1, 8]: 120 nM; IC50 [1, 9]: 120 nM
Cc1ccc(-c2ncc3c(n2)N2CCOC[C@@]2(C)C(=O)N3C2CCOCC2)c2cc[nH]c12 [4g]	26	25.7	450	–	–	–
C[C@@]12COCCN1c1nc(-c3cnc4[nH]ccc4c3)ncc1N(C1CCOCC1)C2=O [4b]	62	61.7	23	6	23	–
